Measurements taken from patent US20260258039A1, “AROMATIC COMPOUND, METHOD FOR PREPARING SAME, AND USE THEREOF IN PREPARATION OF ESTROGEN RECEPTOR DEGRADER” (Hinova Pharmaceuticals Inc., priority 2022, published 2026).

Biological target: T1, ER (Homo sapiens, UniProt P03372)
T1 construct: T47D breast cancer cells were subcultured in cell culture medium; endogenous in cells; host or cells: T47D breast cancer cells
T1 sequence (P03372 1-595): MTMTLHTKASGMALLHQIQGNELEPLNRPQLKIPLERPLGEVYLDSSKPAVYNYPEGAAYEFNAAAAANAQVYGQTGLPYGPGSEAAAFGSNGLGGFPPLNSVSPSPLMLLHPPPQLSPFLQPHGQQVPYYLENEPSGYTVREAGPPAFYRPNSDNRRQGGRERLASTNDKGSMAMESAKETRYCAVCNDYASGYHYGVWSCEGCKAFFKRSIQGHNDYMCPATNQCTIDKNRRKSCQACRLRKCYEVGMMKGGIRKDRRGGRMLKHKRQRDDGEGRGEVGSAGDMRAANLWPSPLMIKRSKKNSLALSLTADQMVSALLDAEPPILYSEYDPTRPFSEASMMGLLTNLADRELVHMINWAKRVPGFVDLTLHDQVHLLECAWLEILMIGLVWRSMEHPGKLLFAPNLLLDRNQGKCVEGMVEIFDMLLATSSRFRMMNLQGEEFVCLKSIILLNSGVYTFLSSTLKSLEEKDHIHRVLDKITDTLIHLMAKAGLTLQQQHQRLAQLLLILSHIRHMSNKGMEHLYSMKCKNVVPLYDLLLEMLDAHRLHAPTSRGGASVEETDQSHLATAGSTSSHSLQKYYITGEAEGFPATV
Experiment: Degradation activities on ER (ELISA) in T47D breast cancer cells
Format: cell-based
Conditions: T47D cells, 24 h, ELISA; for DC50: concentration required to degrade 50% of the target protein; for Dmax: maximum percentage of target protein degraded, read-out: Dmax
Description: T47D breast cancer cells were subcultured in cell culture medium, and then the cells in good growth condition were seeded into 96-well plates at 80 µL/well, with 2.5×10^4 cells per well. The cells were incubated in a 37° C., 5% CO2 incubator for 3 days. The drug was prepared into a 10 mM stock solution with dimethyl sulfoxide (DMSO). Prior to use, the stock solution was diluted with cell culture medium to obtain six final concentrations (100 nM, 25 nM, 6.25 nM, 1.56 nM, 0.39 nM, and […]), and gently mixed. Additionally, negative control wells (only containing culture medium) and positive control wells (only containing cells and DMSO) were included. After the cells were incubated in the incubator for 24 h, the cells were rinsed once with ice-cold 1×PBS. […] The plate was sealed with plastic film, and incubated in a 37° C. incubator for 2 h. The film was removed. 200 μL of 1× washing buffer was added to each well, and then the plate was shaken for 5 min. The washing buffer was discarded, and the plate was pat-dried. The plate was washed four times. 100 μL of freshly prepared detection antibody (green) was added to each well of the ELISA plate. The plate was sealed with plastic film, and then incubated in a 37° C. incubator for 1 h. The film was removed, and the detection antibody was discarded. The plate was pat-dried. 200 μL of 1× washing buffer was added to each well, and then the plate was shaken for 5 min. The washing buffer was discarded, and the plate was pat-dried. The plate was washed four times. 100 μL of freshly prepared HRP-labeled secondary antibody (red) was added to each well of the ELISA plate. The plate was sealed with plastic film, and incubated in a 37° C. incubator for 30 min. The film was removed, the secondary antibody was discarded, and the plate was pat-dried, followed by adding 200 μL of 1× washing buffer to each well. The plate was shaken for 5 min, and the washing buffer was discarded before pat-drying the plate. The plate was washed four times. 100 μl of TMB substrate was added to each well of the ELISA plate, followed by incubating in a 37° C. incubator for 5 min. 100 μL of STOP solution was added to each well of the ELISA plate, and the plate was gently shaken for a few seconds. The bottom of each well was wiped with lint-free cloth. Within 30 min after adding the STOP solution, the absorbance was read at 450 nm. […] The data were analyzed using the Dose-response equation in GraphPad Prism8 software to obtain the DC50 and Dmax values, and both of them are important indicators for measuring the degradation activities of compounds on target proteins. […] The Dmax value represents the maximum percentage of target protein that can be degraded by the compound.

For `O=C1CCC(N2Cc3cc(N4CC5(CCN(CC6CCN(c7ccc([C@@H]8c9ccc(O)cc9OC[C@@H]8c8cccc(F)c8F)cc7)CC6)CC5)C4)ccc3C2=O)C(=O)N1` (relative stereo) [Example 36, 3-(5-(7-((1-(4-(cis-3-(2,3-difluorophenyl)-7-hydroxychroman-4-yl)phenyl)piperidin-4-yl)methyl)-2,7-diazaspiro[3.5]nonane-2-yl)-1-oxoisoindol-2-yl)piperidin-2,6-dione], the DC50 was < 10 nM and the Dmax was 50 to 75%.

In the case of `O=C1CCC(N2C(=O)c3ccc(N4CC5(CN(CC6CCN(c7ccc([C@@H]8c9ccc(O)cc9CC[C@@H]8c8ccccc8)cc7)CC6)C5)C4)cc3C2=O)C(=O)N1` (stereo partly drawn) [Example 3, 2-(2,6-dioxopiperidin-3-yl)-5-(6-((1-(4-((1R,2S)-6-hydroxyl-2-phenyl-1,2,3,4-tetrahydronaphthalen-1-yl)phenyl)piperidin-4-yl)methyl)-2,6-diazaspiro[3.3]heptan-2-yl)isoinodolin-1,3-dione], the DC50 is reported as > 100 nM.

In the case of `O=C1CCC(N2Cc3cc(N4CC5(CCN(CC6CN(c7ccc(C8c9ccc(O)cc9OC[C@@H]8c8ccccc8F)cc7)C6)CC5)C4)ccc3C2=O)C(=O)N1` (stereo partly drawn) [Example 5, 3-(5-(7-((1-(4-(cis-3-(2-fluorophenyl)-7-hydroxypyran-4-yl)phenyl)azetidin-3-yl)methyl)-2,7-diazaspiro[3.5]nonane-2-yl)-1-oxoisoinodolin-2-yl)piperidin-2,6-dione], the DC50 is reported as > 100 nM and the Dmax is reported as 50 to 75%.

In the case of `O=C1CCC(N2Cc3cc(N4CCC(N5CC6(CCN(c7ccc([C@@H]8c9ccc(O)cc9OC[C@@H]8c8ccccc8)cc7)CC6)C5)CC4)ccc3C2=O)C(=O)N1` (some centres unmarked) [Example 13], the DC50 is reported as < 10 nM and the Dmax is reported as > 75%.

With `O=C1CCC(N2Cc3cc(N4CCC(N5CC6(CCN(c7ccc([C@H]8c9ccc(O)cc9OC[C@H]8c8ccccc8F)cc7)CC6)C5)CC4)ccc3C2=O)C(=O)N1` (some centres unmarked) [Example 15] the DC50 was > 100 nM and the Dmax was < 50%.

For `O=C1CCC(N2Cc3cc(N4CCC(N5CC6(CCN(c7ccc([C@@H]8c9ccc(O)cc9CC[C@@H]8c8ccccc8F)cc7)CC6)C5)CC4)ccc3C2=O)C(=O)N1` (stereo partly drawn) [Example 19, 3-(5-(4-(7-(4-(cis-2-(2-fluorophenyl)-6-hydroxyl-1,2,3,4-tetrahydronaphthalen-1-yl)phenyl)-2,7-diazaspiro[3.5]nonane-2-yl)piperidin-1-yl)-1-oxoisoinodolin-2-yl)piperidin-2,6-dione], the DC50 was < 10 nM and the Dmax was > 75%.

With `O=C1CCC(N2Cc3cc(N4CCC(N5CC6(CCN(c7ccc([C@@H]8c9ccc(O)cc9OC[C@@H]8c8ccccc8F)cc7)CC6)C5)CC4)ccc3C2=O)C(=O)N1` (stereo partly drawn) [Example 20, 3-(5-(4-(7-(4-(cis-3-(2-fluorophenyl)-7-hydroxychroman-4-yl)phenyl)-2,7-diazaspiro[3.5]nonane-2-yl)piperidin-1-yl)-1-oxoisoinodolin-2-yl)piperidin-2,6-dione] the DC50 was < 10 nM.

In the case of `O=C1CCC(N2Cc3cc(N4CCC(N5CC6(CCN(c7ccc([C@H]8c9ccc(O)cc9CC[C@H]8c8ccccc8F)cc7)CC6)C5)CC4)ccc3C2=O)C(=O)N1` (stereo partly drawn) [Example 21, 3-(5-(4-(7-(4-((1S,2R)-2-(2-fluorophenyl)-6-hydroxyl-1,2,3,4-tetrahydronaphthalen-1-yl)phenyl)-2,7-diazaspiro[3.5]nonane-2-yl)piperidin-1-yl)-1-oxoisoinodolin-2-yl)piperidin-2,6-dione], the DC50 is reported as > 100 nM and the Dmax is reported as < 50%.

In the case of `O=C1CCC(N2Cc3cc(N4CCC(N5CC6(CCN(c7ccc([C@@H]8c9ccc(O)cc9OC[C@@H]8c8ccccc8)cc7F)CC6)C5)CC4)ccc3C2=O)C(=O)N1` (stereo partly drawn) [Example 23, 3-(5-(4-(7-(4-(cis-3-(2-fluorophenyl)-7-hydroxychroman-4-yl)phenyl)-2,7-diazaspiro[3.5]nonane-2-yl)piperidin-1-yl)-1-oxoisoinodolin-2-yl)piperidin-2,6-dione], the DC50 is reported as 10 to 50 nM and the Dmax is reported as > 75%.

With `O=C1CCC(N2Cc3cc(N4CC5(CCN(CC6CCN(c7ccc([C@H]8c9ccc(O)cc9OC[C@H]8c8cccc(F)c8F)cc7F)CC6)CC5)C4)ccc3C2=O)C(=O)N1` (stereo partly drawn) [Example 24, 3-(5-(7-((1-(4-((3R,4S)-3-(2,3-difluorophenyl)-7-hydroxychroman-4-yl)-2-fluorophenyl)piperidin-4-yl)methyl)-2,7-diazaspiro[3.5]nonane-2-yl)-1-oxoisoinodolin-2-yl)piperidin-2,6-dione] the DC50 was > 100 nM and the Dmax was < 50%.

Work on `Cc1ccccc1[C@H]1COc2cc(O)ccc2[C@H]1c1ccc(N2CCC(CN3CCC4(CC3)CN(c3ccc5c(c3)CN(C3CCC(=O)NC3=O)C5=O)C4)CC2)cc1` (stereo partly drawn) [Example 35, 3-(5-(7-((1-(4-(cis-7-hydroxyl-3-(o-methylphenyl)chroman-4-yl)phenyl)piperidin-4-yl)methyl)-2,7-diazaspiro[3.5]nonane-2-yl)-1-oxoisoinodolin-2-yl)piperidin-2,6-dione] yielded a DC50 of 10 to 50 nM and a Dmax of 50 to 75%.

With `O=C1CCC(N2Cc3cc(N4CC5(CCN(CC6CCN(c7c(F)cc([C@H]8c9ccc(O)cc9OC[C@H]8c8ccccc8F)cc7F)CC6)CC5)C4)ccc3C2=O)C(=O)N1` (stereo partly drawn) [Example 38, 3-(5-(7-((1-(2,6-difluoro-4-((3R,4S)-3-(2-fluorophenyl)-7-hydroxychroman-4-yl)phenyl)piperidin-4-yl)methyl)-2,7-diazaspiro[3.5]nonane-2-yl)-1-oxoisoindol-2-yl)piperidin-2,6-dione] the DC50 was > 100 nM and the Dmax was < 50%.

`O=C1CCC(N2Cc3cc(N4CC5(CCN(CC6CCN(c7c(F)cc([C@H]8c9ccc(O)cc9OC[C@H]8c8cccc(F)c8F)cc7F)CC6)CC5)C4)ccc3C2=O)C(=O)N1` (stereo partly drawn) [Example 39, 3-(5-(7-((1-(4-((3R,4S)-3-(2,3-difluorophenyl)-7-hydroxychroman-4-yl)-2,6-difluorophenyl)piperidin-4-yl)methyl)-2,7-diazaspiro[3.5]nonane-2-yl)-1-oxoisoinodolin-2-yl)piperidin-2,6-one] was tested, and the DC50 was > 100 nM and the Dmax was < 50%.

For `O=C1CCC(N2Cc3cc(N4CC5(CCN(CC6CCN(c7c(F)cc([C@H]8c9ccc(O)cc9OC[C@H]8c8c(F)cccc8F)cc7F)CC6)CC5)C4)ccc3C2=O)C(=O)N1` (some centres unmarked) [Example 41], the DC50 was > 100 nM and the Dmax was < 50%.

`O=C1CCC(N2Cc3cc(N4CC5(CCN(CC6CCN(c7c(F)cc(C8=C(c9c(F)cccc9F)COc9cc(OCc%10ccccc%10)ccc98)cc7F)CC6)CC5)C4)ccc3C2=O)C(=O)N1` (centres unmarked) [Example 43] was tested, and the DC50 was > 100 nM and the Dmax was < 50%.

Work on `O=C1CCC(N2Cc3cc(N4CC5(CCN(CC6CCN(c7ccc([C@@H]8c9ccc(O)cc9OC[C@@H]8c8ccc(F)cc8F)cc7)CC6)CC5)C4)ccc3C2=O)C(=O)N1` (stereo partly drawn) [Example 46, 3-(5-(7-((1-(4-(cis-3-(2,4-difluorophenyl)-7-hydroxychroman-4-yl)phenyl)piperidin-4-yl)methyl)-2,7-diazaspiro[3.5]nonane-2-yl)-1-oxoisoinodolin-2-yl)piperidin-2,6-dione] yielded a DC50 of 10 to 50 nM and a Dmax of 50 to 75%.

In the case of `O=C1CCC(N2Cc3cc(N4CC5(CCN(CC6CCN(c7ccc([C@@H]8c9ccc(O)cc9OC[C@@H]8c8cc(F)ccc8F)cc7)CC6)CC5)C4)ccc3C2=O)C(=O)N1` (stereo partly drawn) [Example 47, 3-(5-(7-((1-(4-(cis-3-(2,5-difluorophenyl)-7-hydroxychroman-4-yl)phenyl)piperidin-4-yl)methyl)-2,7-diazaspiro[3.5]nonane-2-yl)-1-oxoisoinodolin-2-yl)piperidin-2,6-dione], the DC50 is reported as 10 to 50 nM and the Dmax is reported as 50 to 75%.
